Legend:
KRAS (G12D)::SOS1 = KRAS (G12D)::SOS1 (Homo sapiens (Human), UniProt P01116, G12D); assay: KRAS::SOS1 AlphaScreen binding assay, KRAS G12D
How it was run: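 KRAS 1-169 (biotinylated avi-tag) with GST-SOS1 564-1049 and 10 µM GDP in PBS/0.1% BSA/0.05% Tween 20: WT and G13D 10 nM each with 10 nM SOS1; G12D 10 nM and G12C 7.5 nM with 5 nM SOS1. After 30 min, glutathione acceptor/streptavidin donor beads were added for 60 min at RT in the dark, then AlphaScreen read; 4-parameter IC50.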

AsPC-1 cells = assay: AsPC-1 CTG proliferation assay (120 h) (pancreatic cancer, G12D); format: cell-based; conditions: Homo sapiens, ASPC1
Description: AsPC-1 CTG Proliferation Assay (120 h) (Pancreatic Cancer, G12D)
The CTG assay is designed to measure quantitatively the proliferation of AsPC-1 cells (ATCC […]), using the CellTiter Glow Assay Kit (Promega G7571). Cells are grown in RPMI medium (ATCC) supplemented with Fetal Calf Serum (Life Technologies, Gibco BRL, Cat. No. 10270-106). On “day 0” 2000 AsPC-1 cells are seeded in 60 μL RPMI ATCC+10% FCS+Penstrep in a 384-well plate, flat and clear bottom (Greiner, PNr. 781091). Cells are then incubated in the plates at 37° C. in a CO2 incubator overnight. On day 1, compounds (10 mM stock in DMSO) are added with the ECHO acoustic liquid handler system (Beckman Coulter), including DMSO controls. Plates are incubated for 120 h, and cell viability is measured using CellTiter-Glo luminescent cell viability reagent (Promega product code G7570). Viability (stated as percent of control) is defined as relative luminescence units RLU of each well divided by the RLU of cells in DMSO controls. IC50 values are determined from viability measurements by non-linear regression using a four-parameter model.

KRAS (G12D)::SOS1, sequence (P01116 other isoform, or with tags, fused parts or gaps G12D): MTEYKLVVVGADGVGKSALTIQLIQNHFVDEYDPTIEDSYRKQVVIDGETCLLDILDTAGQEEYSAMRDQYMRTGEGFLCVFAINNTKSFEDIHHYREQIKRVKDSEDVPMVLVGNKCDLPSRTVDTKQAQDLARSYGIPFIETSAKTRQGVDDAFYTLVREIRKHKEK

Row | IC50 (KRAS (G12D)::SOS1) | IC50 (AsPC-1 cells) | SMILES
1 | 4 nM | 2.12 µM | C[C@H](Oc1cc(-c2ccncc2)nc(-c2noc3c2CCC[C@@]32CCCc3sc(N)c(C#N)c32)n1)[C@@H]1CCCN1C [II-78]
2 | 3 nM | 1.55 µM | C[C@H](Oc1cc(N2CCOC3(CC3)C2)nc(-c2noc3c2CCC[C@@]32CCCc3sc(N)c(C#N)c32)n1)[C@@H]1CCCN1C [II-61]
3 | 6 nM | 5.45 µM | C[C@H](Oc1cc(-c2cncnc2)nc(-c2noc3c2CCC[C@@]32CCCc3sc(N)c(C#N)c32)n1)[C@@H]1CCCN1C [II-82]
4 | 2 nM | 2.83 µM | Cc1nccn1-c1cc(O[C@@H](C)[C@@H]2CCCN2C)nc(-c2noc3c2CCC[C@@]32CCCc3sc(N)c(C#N)c32)n1 [II-79]
5 | 4 nM | 3.35 µM | CNC(=O)c1cn(-c2cc(O[C@@H](C)[C@@H]3CCCN3C)nc(-c3noc4c3CCC[C@@]43CCCc4sc(N)c(C#N)c43)n2)nn1 [II-122]
6 | 5 nM | 4.86 µM | CC(=O)N1CC=C(c2cc(O[C@@H](C)[C@@H]3CCCN3C)nc(-c3noc4c3CCC[C@@]43CCCc4sc(N)c(C#N)c43)n2)CC1 [II-81]
7 | 4 nM | 2.99 µM | C[C@H](Oc1cc(-c2ccc(N)nc2)nc(-c2noc3c2CCC[C@@]32CCCc3sc(N)c(C#N)c32)n1)[C@@H]1CCCN1C [II-101]
8 | 2 nM | 2.01 µM | C[C@H](Oc1cc(-n2cc(Cn3ccnc3)nn2)nc(-c2noc3c2CCC[C@@]32CCCc3sc(N)c(C#N)c32)n1)[C@@H]1CCCN1C [II-113]
9 | 3 nM | 3.83 µM | C[C@H](Oc1cc(-c2ccn(C3COC3)n2)nc(-c2noc3c2CCC[C@@]32CCCc3sc(N)c(C#N)c32)n1)[C@@H]1CCCN1C [II-109]
10 | 2 nM | 6.52 µM | C[C@H](Oc1cc(-n2ccncc2=O)nc(-c2noc3c2CCC[C@@]32CCCc3sc(N)c(C#N)c32)n1)[C@@H]1CCCN1C [II-116]
11 | 3 nM | 3.97 µM | C[C@H](Oc1cc(C2CCOCC2)nc(-c2noc3c2CCC[C@@]32CCCc3sc(N)c(C#N)c32)n1)[C@@H]1CCCN1C [II-76]
12 | 20 nM | 5.13 µM | C[C@H](Oc1cc(-c2ccn(C3COC3)n2)nc(-c2noc3c2CCC[C@@]32CCCc3sc(N)c(C#N)c32)n1)[C@@H]1C[C@H](F)CN1C [II-83]

From patent US20240174690A1, “ANNULATED 2-AMINO-3-CYANO THIOPHENES AND DERIVATIVES FOR THE TREATMENT OF CANCER” (BOEHRINGER INGELHEIM INTERNATIONAL GMBH, priority 2021, published 2024)
